The source of these data is US9522890B2, “Compounds acting at multiple prostaglandin receptors giving a general anti-inflammatory response” (Allergan, Inc., priority 2011, dated 2016).

A word on the Kb: it is the affinity of an antagonist, worked out from how it opposes an agonist.

Format in all cases: cell-based
Assay [1] has as its target T1, human recombinant prostanoid TP receptor (Homo sapiens, UniProt P21731).
T1 construct: expressed in transfected cells
T1 sequence (P21731 1-343): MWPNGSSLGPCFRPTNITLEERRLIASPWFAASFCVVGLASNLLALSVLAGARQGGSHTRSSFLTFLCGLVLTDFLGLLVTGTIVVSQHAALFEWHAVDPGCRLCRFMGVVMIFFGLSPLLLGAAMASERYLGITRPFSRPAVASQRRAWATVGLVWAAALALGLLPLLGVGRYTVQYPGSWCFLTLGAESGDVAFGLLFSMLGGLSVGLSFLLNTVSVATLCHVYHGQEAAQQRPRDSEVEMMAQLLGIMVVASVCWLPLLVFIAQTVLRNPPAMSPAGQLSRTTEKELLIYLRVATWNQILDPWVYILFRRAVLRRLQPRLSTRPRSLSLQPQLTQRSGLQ
Nature of the assay: FLIPR Ca2+ signaling PG antagonist assay, TP receptor stable cell line. The following applies: HEK-293 EBNA cells, standard agonist U-46619. The protocol:
(§1) The above compounds were tested for PG antagonist activity as follows using human recombinant prostanoid receptor (DP1, EP1-4, FP, IP and TP) stable cell lines:
(§2) In order to measure the response of Gs and Gi coupled prostanoid receptors as a Ca^2+ signal, chimeric G protein cDNAs were used. Stable cell lines over-expressing human prostanoid DP1, EP1-4, FP, IP, and TP receptors were established as follows:
(§3) Briefly, human prostanoid DP1, EP2, and EP4 receptor cDNAs were co-transfected with chimeric Gqs cDNA containing a haemagglutanin (HA) epitope; human prostanoid EP3 receptors were co-transfected with chimeric Gqi-HA; human EP1, FP, IP, and TP receptor cDNAs were expressed with no exogenous G-proteins. Gqs and Gqi chimeric cDNAs (Molecular Devices, Sunnyvale, Calif., U.S.A.), as well as cDNAs of prostanoid receptors, were cloned into a pCEP4 vector with a hygromycin B selection marker. Transfection into HEK-293 EBNA (Epstein-Barr virus nuclear antigen) cells was achieved by the FuGENE 6 transfection Reagent (Roche Applied Science, Indianapolis, Ind., USA). Stable transfectants were selected according to hygromycin resistance. Because Gqs and Gqi contained an HA epitope, G-protein expression was detected by Western blotting analysis using anti-mouse HA monoclonal antibody and horseradish peroxidase (HRP)-conjugated secondary antibody, while functional expression of prostanoid receptors was detected by FLIPR screening (Matias et al., 2004). These stable cell lines were validated using previously published antagonists at 10 μM against serial dilutions of standard agonists by FLIPR functional assays for Ca^2+ Signaling (as described below).
(§4) Ca^2+ signaling studies were performed using a FLIPR TETRA system (Molecular Devices, Sunnyvale, Calif., USA) in the 384-format. This is a high-throughput instrument for cell-based assays to monitor Ca^2+ signaling associated with GPCRs and ion channels. Cells were seeded at a density of 5×10^4 cells/well in BioCoat poly-D-lysine coated, black wall, clear bottom 384-well plates (BD Biosciences, Franklin lakes, NJ, USA) and allowed to attach overnight in an incubator at 37° C. The cells were then washed twice with HBSS-HEPES buffer (Hanks' balanced salt solution without bicarbonate and phenol red, 20 mM HEPES, pH 7.4) using an ELx405 Select CW Microplate Washer (BioTek, Winooski, Vt., USA). After 60 min of dye-loading in the dark using the Ca^2+-sensitive dye Fluo-4AM (Invitrogen, Carlsbad, Calif., USA), at a final concentration of 2×10^−6M, the plates were washed 4 times with HBSS-HEPES buffer to remove excess dye and leaving 50 μl of buffer in each well. The plates were then placed in the FLIPR TETRA instrument and allowed to equilibrate at 37° C. Compounds were added in a 25 μl volume to each well to give final concentrations of 0.1 μM, 0.3 μM, 1 μM, 3 μM, 10 μM, and 30 μM; or 0.067 μM, 0.1 μM, 0.2 μM, 0.3 μM, 0.67 μM, and 1 μM for cells over-expressing TP receptors. After 4.5 minutes, a 7-point serial dilution of the standard agonist for the corresponding receptor, in a 25 μl volume was injected at the final concentrations from 10^−11M to 10^−5M in 10-fold serial dilution increments for cells expressing human recombinant DP1, EP1, EP2, EP3, EP4, FP, and IP receptors. The dose range for the standard agonist for human recombinant TP receptors was from 10^−12M to 10^−6M. HBSS-HEPES buffer was used as the negative control for the standard agonists. Cells were excited with LED (light emitting diode) excitation at 470-495 nm and emission was measured through an emission filter at 515-575 nm. Assay plates were read for 3.5 minutes using the FLIPR^TETRA. The peak increase in fluorescence intensity was recorded for each well. On each plate, negative controls, dose response of positive controls, and co-treatments of antagonist-agonist for each dose were in triplicates. Standard agonists were as follows: DP=BW 245C, EP1-EP4=PGE2, FP=17-phenyl-PGF2α, IP=Cicaprost, and TP=U-46619. […]

Assay [2] concerns the target T2, human recombinant prostanoid EP3 receptor (Homo sapiens, UniProt P43115).
T2 construct: expressed in transfected cells; co-transfected with chimeric Gqi-HA
T2 sequence (P43115 1-390): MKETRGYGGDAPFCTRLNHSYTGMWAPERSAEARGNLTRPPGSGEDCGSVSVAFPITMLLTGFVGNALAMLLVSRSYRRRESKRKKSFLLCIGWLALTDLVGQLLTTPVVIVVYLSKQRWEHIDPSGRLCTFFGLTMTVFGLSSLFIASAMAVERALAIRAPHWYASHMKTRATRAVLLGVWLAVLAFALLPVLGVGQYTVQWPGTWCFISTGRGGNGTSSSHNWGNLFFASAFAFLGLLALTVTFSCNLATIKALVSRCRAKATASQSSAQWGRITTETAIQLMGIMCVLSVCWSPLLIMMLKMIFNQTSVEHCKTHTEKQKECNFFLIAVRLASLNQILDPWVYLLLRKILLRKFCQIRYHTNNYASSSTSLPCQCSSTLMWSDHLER
Nature of the assay: FLIPR Ca2+ signaling PG antagonist assay, EP3 receptor stable cell line. The following applies: HEK-293 EBNA cells with chimeric Gqi, standard agonist PGE2. As for the experimental part: as §1, §2, §3, §4

Assay [3] has as its target T3, human recombinant prostanoid EP4 receptor (Homo sapiens, UniProt P35408).
T3 construct: expressed in transfected cells; co-transfected with chimeric Gqs-HA
As to the kind of experiment: FLIPR Ca2+ signaling PG antagonist assay, EP4 receptor stable cell line. The following applies: HEK-293 EBNA cells with chimeric Gqs, standard agonist PGE2. The protocol: as §1, §2, §3, §4

T3 sequence (P35408 whole entry): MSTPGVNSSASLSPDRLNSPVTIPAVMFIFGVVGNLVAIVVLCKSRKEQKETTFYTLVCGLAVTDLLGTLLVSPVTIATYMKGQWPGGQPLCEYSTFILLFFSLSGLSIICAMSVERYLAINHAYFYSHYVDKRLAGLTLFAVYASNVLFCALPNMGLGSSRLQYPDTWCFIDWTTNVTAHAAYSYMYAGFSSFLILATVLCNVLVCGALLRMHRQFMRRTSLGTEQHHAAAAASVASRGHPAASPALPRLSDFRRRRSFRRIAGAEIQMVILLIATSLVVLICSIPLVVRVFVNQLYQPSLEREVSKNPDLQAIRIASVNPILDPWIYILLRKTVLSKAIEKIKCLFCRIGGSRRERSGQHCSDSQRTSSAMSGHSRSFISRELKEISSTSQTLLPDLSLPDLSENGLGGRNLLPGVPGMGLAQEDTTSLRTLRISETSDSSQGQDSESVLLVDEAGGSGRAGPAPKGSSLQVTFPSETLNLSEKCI

Consider `Cc1cc(C(=O)O)nn1Cc1cc(C(F)(F)F)ccc1OCC1CCCC1` [Example 3, 1-(2-CYCLOPENTYLMETHOXY-5-TRIFLUOROMETHYL-BENZYL)-5-METHYL-1H-PYRAZOLE-3-CARBOXYLIC ACID], for which the Kb in assay [1] was 0.001 µM; in assay [2], at least 10 µM; in assay [3], 0.7 µM.

Regarding `Cc1cc(C(=O)O)nn1Cc1cc(Br)ccc1OCC1(C(F)(F)F)CCC1` [Example 9, 1-[5-BROMO-2-(1-TRIFLUOROMETHYL-CYCLOBUTYLMETHOXY)-BENZYL]-5-METHYL-1H-PYRAZOLE-3-CARBOXYLIC ACID], the Kb in assay [1] amounted to 0.01 µM; in assay [2], 2.6 µM; in assay [3] it was 0.6 µM.

Consider `CCC(CC)COc1ccc(Br)cc1Cn1nc(C(=O)O)cc1C` [Example 6, 1-[5-BROMO-2-(2-ETHYL-BUTOXY)-BENZYL]-5-METHYL-1H-PYRAZOLE-3-CARBOXYLIC ACID], for which the figures for the Kb in assay [1], in assay [2] and in assay [3] were under 0.001 µM, at least 10 µM and 0.8 µM, respectively.

With `Cc1cc(C(=O)NS(=O)(=O)c2ccccc2)nn1Cc1cc(Cl)ccc1OCc1ccc(Cl)cc1` [Example 5, N-{1-[5-CHLORO-2-(4-CHLORO-BENZYLOXY)-BENZYL]-5-METHYL-1H-PYRAZOLE-3-CARBONYL}-BENZENESULFONAMIDE], the Kb stood at 0.01 µM in assay [1], 1.5 µM in assay [2] and 0.075 µM in assay [3].

Regarding `COc1ccc(COc2ccc(Cl)cc2Cn2nc(C(=O)NS(=O)(=O)c3ccccc3)cc2C)cc1` [Example 4, N-{1-[5-CHLORO-2-(4-METHOXY-BENZYLOXY)-BENZYL]-5-METHYL-1H-PYRAZOLE-3-CARBONYL}-BENZENESULFONAMIDE], the Kb was found to be 0.002 µM in assay [1], 2.5 µM in assay [2] and 0.14 µM in assay [3].

With `Cc1cc(C(=O)O)nn1Cc1cc(Br)ccc1OCC1CCCC1` [Example 2, 1-(5-BROMO-2-CYCLOPENTYLMETHOXY-BENZYL)-5-METHYL-1H-PYRAZOLE-3-CARBOXYLIC ACID], the Kb is under 0.001 µM in assay [1], at least 10 µM in assay [2] and 0.4 µM in assay [3].

As for `Cc1cc(C(=O)O)nn1Cc1cc(Cl)ccc1OCC1CCCC1` [Example 1, 1-(5-CHLORO-2-CYCLOPENTYLMETHOXY-BENZYL)-5-METHYL-1H-PYRAZOLE-3-CARBOXYLIC ACID], the Kb in assay [1] is under 0.001 µM; in assay [2], at least 10 µM; in assay [3], 0.8 µM.

In the case of `CCC(C)(CC)COc1ccc(Br)cc1Cn1nc(C(=O)O)cc1C` [Example 7, 1-[5-BROMO-2-(2-ETHYL-2-METHYL-BUTOXY)-BENZYL]-5-METHYL-1H-PYRAZOLE-3-CARBOXYLIC ACID], the Kb in assay [1] was 0.011 µM; in assay [2], at least 10 µM; in assay [3], 2.07 µM.

As for `Cc1cc(C(=O)O)nn1Cc1cc(Br)ccc1OCC1CCC1` [Example 8, 1-(5-BROMO-2-CYCLOBUTYLMETHOXY-BENZYL)-5-METHYL-1H-PYRAZOLE-3-CARBOXYLIC ACID], the Kb in assay [1] was 0.008 µM; in assay [2] it was 4.1 µM; in assay [3] it was 0.7 µM.
